Consider 2 compounds from PMC4076294 (Journal of the American Chemical Society, 2014).

For data set [1] the following is noted: comparison values; cited from earlier work.
The test system of data set [2] is A2780. The data set can be described thus: MTT assay. Type of data set: cell-based, human. Conditions: read-out: IC50 at 48 h; A2780, 48 h.
For data set [3], the system named is nuclear DNA of A2780 cells. The experiment in a line: DNA platination experiment. Type of data set: cell-based, human. The note with it: 5 μM, 5 h, then 16 h in fresh media.
The test system of data set [4] is A2780 ovarian cancer cells. The data set can be described thus: LIVE/DEAD cell viability assay. Conditions: 10 μM, 48 h. Type of data set: cell-based, human.

Where “and” joins values, the source holds several entries; their conditions need not be identical. Equal values may be shown once.

As for `CC(=O)[O][Pt]([NH2])([Cl])([Cl])([NH]C1CCCCC1)[O]C(C)=O` [satraplatin], in data set [1], the “half-life in blood (t1/2)” value is 6.3 min and ~6 min.
For the compound `N.N.[Cl][Pt][Cl]` [cisplatin], the half-inhibitory concentration (IC50) in data set [2] was 6.35 ± 1.39 µM. For the same compound, the “extent of DNA platination” value in data set [3] is 36.4 ± 5.5 Pt adducts/10^6 nucleotides. Also, the “LIVE/DEAD cell assay outcome” value in data set [4] is reported as “mostly survived”.
